Columns and labels:
[1] = tested on: Diet-Induced Obese (DIO) mice; experiment: Assessment of D5D inhibitor in Diet-Induced Obese (DIO) mice; format: in vivo; settings: for Blood glucose: day 52, 4-hour fasted; for Cholesterol / Insulin / LDL cholesterol / Triglycerides: day 52, plasma; for Fat mass / Lean mass: day 54, EchoMRI; for AA / DGLA: day 56, plasma; for Body weight / Liver weights / epididymal WAT / inguinal WAT: day 56
Description: Assessment of D5D) Inhibitor in Diet-Induced Obese (DIO) Mice
Thirty-six male C57BL/6J DIO mice (Jackson Laboratories, stock No.: 380050) fed high-fat diet (Research Diets, Inc., D12492) for 14 weeks. All animals were given free access to water and chow. Animals were acclimated to per os dosing for 3 days prior to the start of the experiment. Animals were randomized on body weight, fat mass, lean mass, and blood glucose concentrations in to 4 groups of 8 animals per group. Animals were daily dosed per os with either: vehicle (2% hydroxypropyl methyl cellulose, 1% Tween 80 in water), Example 1-68 at 30 mg/kg, Example 1-34 at 10 mg/kg, and Example 1-27 at 10 mg/kg, all compounds were formulated in 2% hydroxypropyl methylcellulose, 1% Tween 80 in water. […] On day 52, a 4-hour fasted blood collection was performed, blood glucose was immediately measured, and plasma samples were created from the remaining blood and used to measure cholesterol, triglycerides, LDL cholesterol, and insulin. On day 54, body composition (EchoMRI) was determined. On day 56 the animals were sacrificed, and plasma was collected for measurement of DGLA and AA concentrations. Liver, epididymal white adipose tissue and inguinal white adipose tissue weights were recorded. Data was analyzed using GraphPad Prism v. 7.04.
All compounds led to weight loss over the course of the experiment (Table 28) compared to vehicle controls. Consistently fat and lean mass was reduced, along with lower inguinal and epididymal white adipose tissue (WAT) weights at necropsy. Blood glucose and plasma insulin levels were both reduced by the FADS1 inhibitors, along with reductions in plasma cholesterol, LDL cholesterol and triglycerides. Evidence of target engagement was established by observing increases in plasma DGLA and decreases in plasma AA.

Delta-5-Desaturase (D5D) [2] = target: Delta-5-Desaturase (D5D) (Mus musculus (Mouse), UniProt Q920L1); experiment: In vivo measurement of Delta-5-Desaturase inhibitory activity (plasma AA/DGLA ratio in DIO mice); settings: single oral dose 30 mg/kg, read-out: Average % D5D Inhibition expressed as Plasma Endogenous AA/DGLA Ratio
Chain of Delta-5-Desaturase (D5D) (Mus musculus (Mouse), UniProt Q920L1) (Q920L1 whole entry): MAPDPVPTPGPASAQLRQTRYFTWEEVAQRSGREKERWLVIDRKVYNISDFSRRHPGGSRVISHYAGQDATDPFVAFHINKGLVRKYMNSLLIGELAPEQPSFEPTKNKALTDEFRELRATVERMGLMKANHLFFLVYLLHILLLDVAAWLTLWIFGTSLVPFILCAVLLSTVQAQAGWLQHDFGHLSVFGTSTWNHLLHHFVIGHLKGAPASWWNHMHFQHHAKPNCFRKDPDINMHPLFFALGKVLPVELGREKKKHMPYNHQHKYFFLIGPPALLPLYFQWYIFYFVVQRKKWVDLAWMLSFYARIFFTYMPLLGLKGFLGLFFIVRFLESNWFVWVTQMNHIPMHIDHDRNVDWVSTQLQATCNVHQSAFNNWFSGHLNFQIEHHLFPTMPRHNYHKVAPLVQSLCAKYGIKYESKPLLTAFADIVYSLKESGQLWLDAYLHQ
Description: In vivo Measurement of Delta-5-Desaturase Inhibitory Activity
Diet-induced obese (DIO; Jackson Laboratories strain #3800050) mice were used to screen for pharmacodynamic (PD) activity of test compounds. Generally, 14 to 24 week old DIO mice, were administered test compounds formulated in the vehicle of 2% hydroxypropyl methylcellulose (HPMC) and 1% Tween80. Animals were dosed on body weight by oral gavage with a single dose (30 mg/kg) for PD studies. Necropsy included plasma collection for PUFA analysis. 10 μl of plasma or standards diluted in surrogate matrix (65 g/l bovine serum albumin in Dulbecco's phosphate-buffered saline) were mixed with 10 μl of an internal standard (100 μM alpha-linolenic acid-d14 (ALA-d14, Cayman Chemical)) in a 96 well plate. 100 μl of 2N NAOH was added to the mixture for subsequent saponification at 65° C. for 1 hour. The mixture was then acidified with 50 μl of formic acid followed by two consecutive hexane extractions. Hexane (500 μl) was added and the mixture thoroughly mixed by vortexing, followed by centrifugation at 4,000 rpm for 15 min. The hexane phase was transferred to a new 1 ml 96 well plate and the remaining aqueous layer was extracted with hexane. The organic extracts were combined and the solvent was removed by placing the plate under nitrogen gas at 55° C. 250 μl of 90% methanol was added to the plate followed by vortexing for 2 minutes. 200 μl of the samples were transferred to a new 96 well polypropylene plate. The samples were analyzed on a LC-MS/MS for the following PUFAs: arachidonic acid (AA), dihomo-gamma-linolenic acid (DGLA), with ALA-d14 as the internal standard. Description of the LC-MS/MS method: 5 μl of sample was injected onto a Poroshell 120 EC-C18 3.0×50 mm, 1.9 μm id column. […] The PUFA peak areas were quantified by using the SCIEX Analyst software. […] The relative decrease of the AA/DGLA ratio of the test compound administered group relative to the vehicle administered group was calculated and used as an index for the degree of D5D inhibition.
The results presented in Table 27 were obtained using certain compounds described herein in the in vivo protocol described above.

Delta-5-Desaturase (D5D) [3] = target: Delta-5-Desaturase (D5D) (Homo sapiens (Human), UniProt O60427); experiment: In vitro measurement of Delta-5-Desaturase inhibitory activity using DGLA-CoA and Arachidonyl-CoA mass spectrometric assays; format: biochemical; settings: membrane preparations of D5D-overexpressing HEK293 6E cells; averaged over at least two independent runs
Chain of Delta-5-Desaturase (D5D) (Homo sapiens (Human), UniProt O60427) (O60427 whole entry, species assumed): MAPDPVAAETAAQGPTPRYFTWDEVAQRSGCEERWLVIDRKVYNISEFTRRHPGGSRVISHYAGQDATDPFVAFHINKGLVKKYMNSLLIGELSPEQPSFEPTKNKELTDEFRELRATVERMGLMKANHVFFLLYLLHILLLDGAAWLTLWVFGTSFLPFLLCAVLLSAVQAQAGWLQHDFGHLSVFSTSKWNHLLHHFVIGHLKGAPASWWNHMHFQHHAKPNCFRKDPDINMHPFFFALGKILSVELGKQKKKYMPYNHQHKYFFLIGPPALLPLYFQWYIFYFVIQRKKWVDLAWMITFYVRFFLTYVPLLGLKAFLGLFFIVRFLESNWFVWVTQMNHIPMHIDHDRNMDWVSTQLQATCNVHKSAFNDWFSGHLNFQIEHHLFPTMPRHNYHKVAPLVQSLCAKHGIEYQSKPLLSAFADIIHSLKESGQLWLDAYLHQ
Outline: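 DGLA-CoA and arachidonyl-CoA were read by RapidFire SPE triple-quad MS (negative mode, MRM) after a 1 h ambient-temperature reaction quenched with acetonitrile. Enzyme was D5D-overexpressing HEK293 6E membranes at 10 μg/mL final; substrate solution held 0.01 mM DGLA plus NADH, ATP and CoA. Inhibition was referenced to DMSO and no-enzyme wells; 4PL IC50.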

[4] = day 50-52, 10 mg/kg daily per os

inhibition in vivo at 30 mg/kg (Delta-5-Desaturase (D5D) [2])	IC50 (Delta-5-Desaturase (D5D) [3])	Compound	Food consumption ([1]; day 0-2, 10 mg/kg daily per os)	Food consumption [1, 4]	Blood glucose ([1]; 10 mg/kg daily per os)	Cholesterol ([1]; 10 mg/kg daily per os)	Insulin ([1]; 10 mg/kg daily per os)	LDL cholesterol ([1]; 10 mg/kg daily per os)	Triglycerides ([1]; 10 mg/kg daily per os)	Fat mass ([1]; 10 mg/kg daily per os)	Lean mass ([1]; 10 mg/kg daily per os)	AA ([1]; 10 mg/kg daily per os)	DGLA ([1]; 10 mg/kg daily per os)	Body weight ([1]; 10 mg/kg daily per os)	Liver weights ([1]; 10 mg/kg daily per os)	epididymal WAT ([1]; 10 mg/kg daily per os)	inguinal WAT ([1]; 10 mg/kg daily per os)	also measured
66%	30.7 nM	COc1ccn2c(=O)c(-c3cnn(CC(F)(F)C(F)(F)F)c3)c(C(F)(F)F)nc2n1 [Example 1-34, 8-methoxy-3-(1-(2,2,3,3,3-pentafluoropropyl)-1H-pyrazol-4-yl)-2-(trifluoromethyl)-4H-pyrimido[1,2-a]pyrimidin-4-one]	2.2 ± 0.1 g/day	3.0 ± 0.1 g/day	150.5 ± 8.3 mg/dL	177.1 ± 12.6 mg/dL	0.6 ± 0.2 ng/mL	88.6 ± 9.2 mg/dL	15.6 ± 2.3 mg/dL	7.4 ± 0.9 g	26.6 ± 0.7 g	29.4 ± 0.9 µg/mL	161.4 ± 8.5 µg/mL	34.7 ± 1.6 g	2.9 ± 0.3 g	0.9 ± 0.1 g	0.8 ± 0.1 g	–
78%	18.7 nM	N#Cc1ccn2c(=O)c(-c3cnn(CC(F)(F)C(F)(F)F)c3)c(C(F)(F)F)nc2c1 [Example 1-27, 4-oxo-3-(1-(2,2,3,3,3-pentafluoropropyl)-1H-pyrazol-4-yl)-2-(trifluoromethyl)-4H-pyrido[1,2-a]pyrimidine-8-carbonitrile]	2.5 ± 0.1 g/day	3.1 ± 0.1 g/day	178.8 ± 7.5 mg/dL	191.3 ± 14.5 mg/dL	3.3 ± 1.2 ng/mL	104.6 ± 9.1 mg/dL	24.1 ± 1.2 mg/dL	16.9 ± 0.5 g	28.1 ± 0.5 g	60.8 ± 1.9 µg/mL	310.3 ± 13.7 µg/mL	45.7 ± 1.1 g	2.8 ± 0.2 g	1.8 ± 0.1 g	1.9 ± 0.1 g	–
80%	11.6 nM	COc1ccn2c(=O)c(-c3cnn(CC(F)(F)C(F)(F)F)c3)c(C(F)(F)F)nc2c1 [Example 1-68, 8-methoxy-3-(1-(2,2,3,3,3-pentafluoropropyl)-1H-pyrazol-4-yl)-2-(trifluoromethyl)-4H-pyrido[1,2-a]pyrimidin-4-one]	–	–	–	–	–	–	–	–	–	–	–	–	–	–	–	Food consumption ([1]; day 0-2, 30 mg/kg daily per os): 2.7 ± 0.1 g/day; Food consumption ([1]; day 50-52, 30 mg/kg daily per os): 2.6 ± 0.1 g/day; Blood glucose ([1]; 30 mg/kg daily per os): 146.6 ± 7.1 mg/dL; Cholesterol ([1]; 30 mg/kg daily per os): 166.2 ± 7.8 mg/dL; Insulin ([1]; 30 mg/kg daily per os): 1.1 ± 0.2 ng/mL; LDL cholesterol ([1]; 30 mg/kg daily per os): 86.5 ± 12.5 mg/dL; Triglycerides ([1]; 30 mg/kg daily per os): 14.5 ± 1.0 mg/dL; Fat mass ([1]; 30 mg/kg daily per os): 13.3 ± 1.0 g; Lean mass ([1]; 30 mg/kg daily per os): 26.7 ± 0.5 g; AA ([1]; 30 mg/kg daily per os): 38.0 ± 1.6 µg/mL; DGLA ([1]; 30 mg/kg daily per os): 258.4 ± 8.5 µg/mL; Body weight ([1]; 30 mg/kg daily per os): 40.7 ± 1.5 g; Liver weights ([1]; 30 mg/kg daily per os): 2.9 ± 0.2 g; epididymal WAT ([1]; 30 mg/kg daily per os): 1.6 ± 0.1 g; inguinal WAT ([1]; 30 mg/kg daily per os): 1.6 ± 0.2 g

— US12473289B2, “Heterocyclic compounds as delta-5 desaturase inhibitors and methods of use” (Amgen Inc., priority 2019, dated 2025)
